Our source for the IC50 values is patent US11780840B2 (Incyte Corporation, priority 2020, dated 2023).

In test [1] the target is T1, pseudo-kinase domain (JH2, amino-acids 536-812 with 3 surface mutations W659A, W777A, F794H) of human Wild Type JAK2 (Homo sapiens, UniProt O60674, F794H/W659A/W777A).
T1 construct: pseudo-kinase domain (JH2, amino-acids 536-812 with 3 surface mutations W659A, W777A, F794H); His (C); Avi (biotinylated) (C); purchased BPS Bioscience 79463; host or cells: baculovirus expression system
Nature of the test: JAK2 LanthaScreen JH2-WT Binding Assay. Particulars: JAK2 JH2-WT (0.145 nM), 50 nM Fluorescent JAK2-JH2 Tracer, 1 hour at 25° C.; read-out: JH2 BIND WT. Put shortly: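 Compounds, serially diluted, were mixed with 0.145 nM JH2 domain, 50 nM tracer and 0.25 nM streptavidin-Tb cryptate, then incubated 1 hour at 25° C before LanthaScreen reading. Wells containing 2 mM ATP defined non-specific binding. Four-parameter dose-response curves gave IC50.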
On the technique in general: In TR-FRET formats the signal depends on donor and acceptor labels being close together.

The target of test [2] is T2, catalytic domain (JH1, amino acids 826-1132) of human JAK2 (Homo sapiens, UniProt O60674).
T2 construct: catalytic domain (JH1, amino acids 826-1132) of human JAK2; FLAG (N); purchased Carna Biosciences 08-445-20N; host or cells: baculovirus expression system
The experiment in a line: JAK2 LanthaScreen JH1 Binding Assay. The conditions noted are these: JAK2 JH1 (1.5 nM), 50 nM fluorescent JAK2-JH1 tracer, 2 hours at 25° C.; read-out: JH1 BIND. Summed up:
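TR-FRET tracer-displacement format: compound IC50 from four-parameter curves after 2 h at 25° C. Reaction held 1.5 nM biotinylated, FLAG-tagged JH1 (aa 826-1132), 50 nM tracer, 0.5 nM Streptavidin-Tb, pH 7.5 Tris buffer; 2 mM ATP set nonspecific background.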

The target in test [3] is T3, pseudo-kinase domain (JH2, amino-acids 536-812 with 3 surface mutations W659A, W777A, F794H) of human V617F mutant JAK2 (Homo sapiens, UniProt O60674, F794H/V617F/W659A/W777A).
T3 construct: pseudo-kinase domain (JH2, amino-acids 536-812 with 3 surface mutations W659A, W777A, F794H); His (C); Avi (biotinylated) (C); purchased BPS Bioscience 79498; host or cells: baculovirus expression system
Nature of the test: JAK2 LanthaScreen JH2-V617F Binding Assay. Particulars: JAK2 JH2-V617F (0.26 nM), 50 nM Fluorescent JAK2-JH2 Tracer, 1 hour at 25° C.; read-out: JH2 BIND V617F. Put shortly:
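TR-FRET tracer displacement: 0.26 nM protein, 50 nM tracer, 0.25 nM SA-Tb, 50 mM Tris pH 7.5, 10 mM MgCl2, 5 mM DTT; 1 h, 25° C. NSB = 2 mM ATP. IC50, 4-parameter curve.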

T1 sequence (O60674 536-812 W659A/W777A/F794H): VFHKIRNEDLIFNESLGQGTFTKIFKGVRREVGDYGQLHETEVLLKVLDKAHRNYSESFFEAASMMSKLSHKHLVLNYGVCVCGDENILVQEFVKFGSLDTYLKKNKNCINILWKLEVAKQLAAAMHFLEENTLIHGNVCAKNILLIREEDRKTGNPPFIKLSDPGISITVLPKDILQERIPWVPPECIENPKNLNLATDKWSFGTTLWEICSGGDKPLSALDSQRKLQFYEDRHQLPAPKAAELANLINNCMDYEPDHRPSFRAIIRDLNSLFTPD
T3 sequence (O60674 536-812 V617F/W659A/W777A/F794H): as the sequence (O60674 536-812 W659A/W777A/F794H) above, with V82F counted along it
T2 sequence (O60674 826-1132): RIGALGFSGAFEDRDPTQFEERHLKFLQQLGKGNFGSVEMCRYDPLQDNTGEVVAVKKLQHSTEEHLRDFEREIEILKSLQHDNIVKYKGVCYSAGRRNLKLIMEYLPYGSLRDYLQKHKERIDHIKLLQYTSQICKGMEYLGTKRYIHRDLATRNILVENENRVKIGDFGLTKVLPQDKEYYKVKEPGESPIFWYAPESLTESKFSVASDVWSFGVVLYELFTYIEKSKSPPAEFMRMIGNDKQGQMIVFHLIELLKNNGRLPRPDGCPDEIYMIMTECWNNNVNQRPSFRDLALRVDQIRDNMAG

As for `CN(C)C(=O)c1ccc(-c2[nH]c3ncc4c(c3c2-c2ccc3c(cnn3C)c2)n(C2CCCC2)c(=O)n4C)cc1` [Example 89, 4-(1-Cyclopentyl-3-methyl-8-(1-methyl-1H-indazol-5-yl)-2-oxo-1,2,3,6-tetrahydroimidazo [4,5-d]pyrrolo[2,3-b]pyridin-7-yl)-N,N-dimethylbenzamide], the IC50 in test [1] was no more than 10 nM; in test [2] it was 500 to 1000 nM; in test [3] it was no more than 10 nM.

For the compound `Cn1c(=O)n(C2CCOCC2)c2c3c(-c4ccccc4)c(-c4ccc(CN5CCC(S(C)(=O)=O)CC5)cc4)[nH]c3ncc21` [Example 46, 3-Methyl-7-(4-((4-(methylsulfonyl)piperidin-1-yl)methyl)phenyl)-8-phenyl-1-(tetrahydro-2H-pyran-4-yl)-3,6-dihydroimidazo[4,5-d]pyrrolo[2,3-b] pyridin-2(1H)-one], the IC50 is no more than 10 nM in test [1], 500 to 1000 nM in test [2] and no more than 10 nM in test [3].

In the case of `COC(=O)N[C@H]1C[C@@H](n2c(=O)n(C)c3cnc4[nH]c(-c5cnn(C)c5)c(-c5ccc6c(cnn6C)c5)c4c32)C1` [Example 104, Methyl ((1S,3S)-3-(3-methyl-8-(1-methyl-1H-indazol-5-yl)-7-(1-methyl-1H-pyrazol-4-yl)-2-oxo-3,6-dihydroimidazo[4,5-d]pyrrolo[2,3-b]pyridin-1(2H)-yl)cyclobutyl)carbamate], the results for the IC50 in test [1], in test [2] and in test [3] were no more than 10 nM, 500 to 1000 nM and no more than 10 nM, respectively.

`Cn1cc(-c2[nH]c3ncc4c(c3c2-c2ccc(C#N)cc2)n(C2CCC3(CC2)CN(S(C)(=O)=O)C3)c(=O)n4C)cn1` [Example 112, 4-(3-Methyl-7-(1-methyl-1H-pyrazol-4-yl)-1-(2-(methylsulfonyl)-2-azaspiro[3.5]nonan-7-yl)-2-oxo-1,2,3,6-tetrahydroimidazo[4,5-d]pyrrolo[2,3-b]pyridin-8-yl)benzonitrile]: the IC50 in test [1] is no more than 10 nM; in test [2], 500 to 1000 nM; in test [3], no more than 10 nM.

As for `CC(C)n1c(=O)n(C)c2cnc3[nH]c(-c4ccc(CN5CCC(S(C)(=O)=O)CC5)cc4)c(-c4ccc(C5(C#N)CC5)cc4)c3c21` [Example 26, 1-(4-(1-Isopropyl-3-methyl-7-(4-((4-(methylsulfonyl)piperidin-1-yl)methyl)phenyl)-2-oxo-1,2,3,6-tetrahydroimidazo [4,5-d]pyrrolo[2,3-b]pyridin-8-yl)phenyl) cyclopropane-1-carbonitrile], the IC50 is no more than 10 nM in test [1], greater than 1000 nM in test [2] and no more than 10 nM in test [3].

With `Cn1cc(-c2[nH]c3ncc4c(c3c2-c2ccc3c(cnn3C)c2)n(C2CCOCC2)c(=O)n4C)cn1` [Example 48, 3-Methyl-8-(1-methyl-1H-indazol-5-yl)-7-(1-methyl-1H-pyrazol-4-yl)-1-(tetrahydro-2H-pyran-4-yl)-3,6-dihydroimidazo[4,5-d]pyrrolo[2,3-b]pyridin-2(1H)-one], the IC50 in test [1] was no more than 10 nM; in test [2], greater than 1000 nM; in test [3], no more than 10 nM.

As for `COc1ccc(-c2c(-c3ccc(CN4CCC(S(C)(=O)=O)CC4)cc3)[nH]c3ncc4c(c23)n(C2CCC2)c(=O)n4C)cc1` [Example 21, 1-Cyclobutyl-8-(4-methoxyphenyl)-3-methyl-7-(4-((4-(methylsulfonyl)piperidin-1-yl)methyl)phenyl)-3,6-dihydroimidazo [4,5-d]pyrrolo [2,3-b]pyridin-2(1H)-one], the IC50 in test [1] is no more than 10 nM; in test [2], 100 to 500 nM; in test [3] it was no more than 10 nM.

Consider `Cn1c(=O)n(C2CCOCC2)c2c3c(-c4ccc(C5(N6CCOCC6)CC5)cc4)c(-c4cnn(CC(C)(C)O)c4)[nH]c3ncc21` [Example 51, 7-(1-(2-Hydroxy-2-methylpropyl)-1H-pyrazol-4-yl)-3-methyl-8-(4-(1-morpholinocyclo-propyl)phenyl)-1-(tetrahydro-2H-pyran-4-yl)-3,6-dihydroimidazo[4,5-d]pyrrolo[2,3-b]pyridin-2(1H)-one], for which the IC50 was no more than 10 nM in test [1], greater than 1000 nM in test [2] and no more than 10 nM in test [3].

With `Cn1ncc2cc(-c3c(C4CC4C#N)[nH]c4ncc5c(c34)n(C3CCCC3)c(=O)n5C)ccc21` (stereo not drawn) [Example 72, 2-(1-Cyclopentyl-3-methyl-8-(1-methyl-1H-indazol-5-yl)-2-oxo-1,2,3,6-tetrahydroimidazo [4,5-d]pyrrolo[2,3-b]pyridin-7-yl)cyclopropane-1-carbonitrile], the figures for the IC50 in test [1], in test [2] and in test [3] were no more than 10 nM, 500 to 1000 nM and 10 to 100 nM, respectively.

For the compound `Cn1c(=O)n(C2CCCC2)c2c3c(-c4ccc(C5(C#N)CC5)cc4)c(-c4ccc(CN5CCC(S(C)(=O)=O)CC5)cc4)[nH]c3ncc21` [Example 30, 1-(4-(1-Cyclopentyl-3-methyl-7-(4-((4-(methylsulfonyl)piperidin-1-yl)methyl)phenyl)-2-oxo-1,2,3,6-tetrahydroimidazo [4,5-d]pyrrolo[2,3-b]pyridin-8-yl)phenyl)cyclo-propane-1-carbonitrile], the IC50 in test [1] is no more than 10 nM; in test [2], 100 to 500 nM; in test [3], no more than 10 nM.

For `Cn1c(=O)n(C)c2c3c(-c4ccccc4)c(C4CCNCC4)[nH]c3ncc21` [Example 41, 1,3-Dimethyl-8-phenyl-7-(piperidin-4-yl)-3,6-dihydroimidazo[4,5-d]pyrrolo[2,3-b]pyridin-2(1H)-one], the IC50 in test [1], in test [2] and in test [3] was greater than 1000 nM each time.

Take `Cn1ncc2cc(-c3c(-c4ccc(OC5CCOCC5)nc4)[nH]c4ncc5c(c34)n(C3CCCC3)c(=O)n5C)ccc21` [Example 66, 1-Cyclopentyl-3-methyl-8-(1-methyl-1H-indazol-5-yl)-7-(6-((tetrahydro-2H-pyran-4-yl)oxy)pyridin-3-yl)-3,6-dihydroimidazo[4,5-d]pyrrolo[2,3-b]pyridin-2(1H)-one]: the IC50 in test [1] is 10 to 100 nM; in test [2], greater than 1000 nM; in test [3] it was 10 to 100 nM.

With `CC(C)n1c(=O)n(C)c2cnc3[nH]c(-c4cnn(CC(C)(C)O)c4)c(-c4ccc(COC5CCOCC5)cc4)c3c21` [Example 87, 7-(1-(2-Hydroxy-2-methylpropyl)-1H-pyrazol-4-yl)-1-isopropyl-3-methyl-8-(4-(((tetrahydro-2H-pyran-4-yl)oxy)methyl)phenyl)-3,6-dihydroimidazo[4,5-d]pyrrolo[2,3-b]pyridin-2(1H)-one], the IC50 was no more than 10 nM in test [1], greater than 1000 nM in test [2] and no more than 10 nM in test [3].

Turning to `COCCn1cc(-c2[nH]c3ncc4c(c3c2-c2ccc3c(cnn3C)c2)n(C2CCCC2)c(=O)n4C)cn1` [Example 54, 1-Cyclopentyl-7-(1-(2-methoxyethyl)-1H-pyrazol-4-yl)-3-methyl-8-(1-methyl-1H-indazol-5-yl)-3,6-dihydroimidazo[4,5-d]pyrrolo[2,3-b] pyridin-2(1H)-one], the IC50 is no more than 10 nM in test [1], 100 to 500 nM in test [2] and no more than 10 nM in test [3].

As for `Cn1c(=O)n(C2CCCC2)c2c3c(C4=CCOCC4)c(-c4ccc(CN5CCC(S(C)(=O)=O)CC5)cc4)[nH]c3ncc21` [Example 33, 1-Cyclopentyl-8-(3,6-dihydro-2H-pyran-4-yl)-3-methyl-7-(4-((4-(methylsulfonyl)piperidin-1-yl)methyl)phenyl)-3,6-dihydroimidazo[4,5-d]pyrrolo[2,3-b] pyridin-2(1H)-one], the IC50 in test [1] is no more than 10 nM; in test [2], 10 to 100 nM; in test [3], no more than 10 nM.
